Series [1] concerns the target T1, menthone: (3R)-(−)-menthol reductase (SEQ ID NO:2) (Mentha x piperita, UniProt Q5CAF4). The series can be described thus: Substrate specificity of the reductase. It counts as biochemical. Conditions: 100 μM monoterpenone substrate, 500 μM NADPH, 0.5 μg reductase, pH optimum, overnight incubation.
Series [2] addresses T1, menthone: (3R)-(−)-menthol reductase (SEQ ID NO:2). Kind of series: In vitro demonstration of menthone reductase activity (product analysis by GC, GC-MS). It counts as biochemical. Conditions: partially purified recombinant protein. How it is done:
Bacteria harboring the pSBET-reductase plasmid or the pET-reductase plasmid were grown in 5 ml cultures of Luria-Bertani (LB) media to an OD600 of 0.8-1.0, at which time the cultures were cooled to 10° C., isopropyl-β-D-thiogalactopyranoside was added to 0.25 mM, and growth was continued for 12-18 h at 10° C. with shaking at 220 rpm. Cells were pelleted by centrifugation for 25 min at 2500 g and 4° C., and then resuspended in 1 ml resuspension buffer (50 mM Mopso, pH 7, with 10% (v/v) glycerol, 10% (w/v) sorbitol, and 10 mM […]) containing 0.4 mg/ml lysozyme. Following incubation on ice for 30 min, the extract was sonicated for 10 sec with a Virtis sonicator using a microtip probe at medium power. Cell debris was pelleted by centrifugation at 27,000 g at 4° C. for 30 min, and the supernatant, containing the operationally soluble reductase, was used for initial characterization.
Following incubation with gentle shaking at 31° C. for 12 h, 0.5 ml of pentane was added and the mixture was vigorously mixed to extract the monoterpene products which were analyzed by GC and GC-MS as described above. […] Following 15 h of shaking (250 rpm) at 15-20° C., these cultures were transferred to 0.5 L round-bottom flasks, to which 6.6 μmol of (+)-camphor was added as an internal standard, and the mixture was steam distilled and the distillate analyzed as described above.

Series [3] shares this target. The settings on record: at saturation under linear reaction conditions.
Experimental: Assay mixtures containing 2 ml of 40 mM KH2PO4 at pH 7, with 10 mM β-mercaptoethanol were combined with 500 μM cofactor and concentrations of monoterpene substrate ranging from 2.5 μM to 1 mM, or with 100 μM monoterpene substrate, and concentrations of cofactor ranging from 0.1 μM to 1 mM, and preheated to 31° C. before initiation of the reaction by enzyme addition (0.008 to 1.3 μg protein). The reactions were quenched after 6 to 9 min by addition of 0.5 ml pentane containing camphor as internal standard (6.6 μM) followed by vigorous mixing and cooling on ice; quantitation of products in the pentane extract was achieved by capillary-GC using the conditions described above with peak area quantification using the internal standard for normalization. […] Kinetic constants, representing the average of at least two independent experiments, were determined by nonlinear regression analysis of Michaelis-Menten plots using Enzyme Kinetics, v 1.11 (Trinity Software, Plymouth, N.H.). The values reported are the means±standard error.
Substrate in series [4]: CC(C)[C@@H]1CC[C@@H](C)CC1=O
Kind of series: purified protein, by the assay type. Conditions: other: monoterpene substrate, NADPH as cofactor, reductase expressed from pSBET, pH 7, 31° C., means±standard error.

Substrate in series [5]: CC(C)[C@H]1CC[C@@H](C)CC1=O
Kind of series: purified protein, by the assay type. The settings on record: other: monoterpene substrate, NADPH as cofactor, reductase expressed from pSBET, pH 7, 31° C., means±standard error.

Series [6] has as its target T1, menthone: (3R)-(−)-menthol reductase (SEQ ID NO:2). The series can be described thus: pH optimum of the reductase. It counts as biochemical. The settings on record: 25 μM menthone, 500 μM NADPH, 0.5 μg protein, 6 min at 31° C.
[7] abbreviates: from (−)-menthone in the presence of NADPH.
The mark [8] stands for this setting: from (+)-isomenthone in the presence of NADPH.

Broadly, the Km is the substrate concentration at which the rate is half of its maximum. Broadly, the kcat is the maximal rate divided by the concentration of active sites.

Where “and” joins values, the source holds several entries; their conditions need not be identical. Equal values may be shown once.

Take (+)-menthone: the “reduction of alternate substrate to the corresponding monoterpenols” value (“reduction of alternate substrate” for short) in series [1] is “detectably reduce”.
Regarding `CC(C)[C@@H]1CC[C@@H](C)CC1=O` [menthone, (−)-menthone], in series [2] (setting [7]), the “product share (3R)-(−)-menthol” value was determined as 95% and the “product share (3S)-(+)-neomenthol” value worked out at 5%.
For the molecule `CC(C)[C@H]1CC[C@@H](C)CC1=O` [isomenthone, (+)-isomenthone], in series [2] (setting [8]), the “product share (3R)-(+)-neoisomenthol” value stood at 87% and the “product share (3S)-(+)-isomenthol” value is given as 13%.
As for `C=C(C)C1CCC(C)=CC1=O` (single isomer, unassigned; (-)) [(−)-isopiperitenone], the “reduction of alternate substrate” value in series [1] is “only able to detectably reduce (+)-menthone”.
Still for that read-out and setting: in the case of `C=C(C)C1CC=C(C)C(=O)C1` (single isomer, unassigned; (-)) [(−)-carvone] it was “only able to detectably reduce (+)-menthone”; in that of `C=C(C)[C@H]1CC[C@@H](C)CC1=O` (relative stereo) [(+)-cis-isopulegone], “only able to detectably reduce (+)-menthone”.
Take `NC(=O)C1=CN([C@@H]2O[C@H](COP(=O)(O)OP(=O)(O)OC[C@H]3O[C@@H](n4cnc5c(N)ncnc54)[C@H](O)[C@@H]3O)[C@@H](O)[C@H]2O)C=CC1` [NADH]: the “turnover with NADH as cofactor compared with NADPH” value in series [3] is given as “less than 20%”.
Take `CC(C)=C1CC[C@@H](C)CC1=O` [(+)-pulegone]: the “reduction of alternate substrate” value in series [1] is given as “only able to detectably reduce (+)-menthone”.

B1: menthone: (3R)-(−)-menthol reductase (SEQ ID NO:2) (Mentha x piperita) (protein)
chain: MADTFTQRYALVTGANKGIGFEICRQLASKGMKVILASRNEKRGIEARERLLKESRSISDDDVVFHQLDVADPASAVAVAHFIETKFGRLDILVNNAGFTGVAIEGDISVYQECLEANIIAAQGGQAHPFHPKTTGRLIETLEGSKECIETNYYGTKRITETLIPLLQKSDSPTIVNVSSTFSTLLLQPNEWAKGVFSSNSLNEGKVEEVLHEFLKDFIDGKLQQNHWPPNFAAYKVSKAAVNAYTRIIARKYPSFCINSVCPGFVRTDICYNLGVLSEAEGAEAPVKLALLPDGGPSGSFFSREEALSLY
With B1, the Km in series [4] worked out at 3.0 ± 0.6 µM; in series [5], 41 ± 5 µM. For the same molecule, in series [4], the catalytic constant (kcat) is 0.6 s⁻¹.

B2: reductase (SEQ ID NO:2): recombinant peppermint menthone: (3R)-(−)-menthol reductase, 311 residue protein encoded by cDNA SEQ ID NO:1, expressed in E. coli (protein)
chain: MADTFTQRYALVTGANKGIGFEICRQLASKGMKVILASRNEKRGIEARERLLKESRSISDDDVVFHQLDVADPASAVAVAHFIETKFGRLDILVNNAGFTGVAIEGDISVYQECLEANIIAAQGGQAHPFHPKTTGRLIETLEGSKECIETNYYGTKRITETLIPLLQKSDSPTIVNVSSTFSTLLLQPNEWAKGVFSSNSLNEGKVEEVLHEFLKDFIDGKLQQNHWPPNFAAYKVSKAAVNAYTRIIARKYPSFCINSVCPGFVRTDICYNLGVLSEAEGAEAPVKLALLPDGGPSGSFFSREEALSLY
modifications: Mentha Piperita
Consider B2, for which, in series [6], the “pH of half maximal activities” value was 4.5 and 8.5; the pH optimum was 7.0.

These data come from patent publication US8426684B2 (Washington State University Research Foundation, priority 2004, dated 2013).
